# Results from US8158655B2, “Sulfonamide derivatives” (Hoffmann-La Roche Inc., priority 2007, dated 2012).
# Where two headings read alike, the source gives them in different places.
# Target: T1, Chymase purified from human skin mast cells (Homo sapiens, UniProt P23946)
# T1 construct: Chymase purified from human skin mast cells was obtained from Calbiochem; purchased Calbiochem (Merck Biosciences, San Diego, Calif., USA); host or cells: human skin mast cells (natural source)
# T1 sequence (P23946 22-247): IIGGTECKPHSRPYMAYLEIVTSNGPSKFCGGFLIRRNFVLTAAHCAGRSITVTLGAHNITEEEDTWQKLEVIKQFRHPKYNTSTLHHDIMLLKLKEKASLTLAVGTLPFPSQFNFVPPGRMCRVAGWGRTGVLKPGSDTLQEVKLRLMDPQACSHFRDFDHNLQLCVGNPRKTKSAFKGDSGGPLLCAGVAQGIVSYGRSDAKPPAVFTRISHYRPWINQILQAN
# Experiment: chymase peptide substrate assay (AAPF-AMC fluorescence)
# Type: biochemical
# Description: The peptide was synthesized with a purity of 95% from Bachem, Bubendorf, Switzerland). Chymase purified from human skin mast cells was obtained from Calbiochem (Merck Biosciences, San Diego, Calif., USA). The assay buffer was 0.15 M NaCl, 0.05M, Tris HCl, 0.05% CHAPS (3-[(3-Cholamidopropyl)-dimethylammonio]-1-propane sulphonate), 0.1 mg/ml Heparin (Heparin sodium, Sigma, porcine intestinal mucosa), 0.02 mM AAPF-substrate, 1 nM Chymase at pH 7.4. The assay was performed in 96-well plates (Packard Optiplate), with a 0.05 ml volume at room temperature. Chymase activity was indicated by the initial rate of increase in fluorescence at 340/440 nm (excitation/emission) from free 7-amino-4-methylcoumarin released from the substrate. Inhibition of the activity by inhibitory compounds was read after 30 min pre-incubation with the chymase at room temperature in assay buffer without AAPF-substrate. The assay was then started by addition of the indicated concentration of AAPF-substrate.
# [1] = 0.02 mM AAPF-substrate, 1 nM Chymase, pH 7.4, room temperature, 30 min pre-incubation, read-out: IC50
IC50,IC50 [1],Structure (SMILES)
35 nM,,"Cc1c(S(=O)(=O)Nc2ccc(-c3ccncc3)cc2C(F)(F)F)sc2ccc(F)cc12 [Example 2, 5-Fluoro-3-methyl-benzo[b]thiophene-2-sulfonic acid(4-pyridin-4-yl-2-trifluoromethyl-phenyl)-amide]"
,106 nM,"CCc1cc(-c2ccncc2)ccc1NS(=O)(=O)c1sc2ccc(F)cc2c1C [Example 16, 5-Fluoro-3-methyl-benzo[b]thiophene-2-sulfonic acid(2-ethyl-4-pyridin-4-yl-phenyl)-amide]"
,3 nM,"Cc1c(S(=O)(=O)Nc2ccc(C3CCNCC3)cc2S(C)(=O)=O)sc2ccc(F)cc12 [Example 21, 5-Fluoro-3-methyl-benzo[b]thiophene-2-sulfonic acid(2-methanesulfonyl-4-piperidin-4-yl-phenyl)-amide]"
